Read-outs that look alike come from different tables or passages of the source.
Tested on: bone resorption (parietal bone)
Assay: Bone resorption-inhibitory activity (45Ca release from newborn mouse parietal bone, hPTH (1-34) stimulated, method of Raisz)
Type: cell-based, ICR mouse
Settings: for inhibition at 20 µM: read-out: bone resorption-inhibitory action, % against control
Description: The method for determining the bone resorption-inhibitory activity of the Compound (I) and the results are shown in the following.
Bone resorption-inhibitory activity
The determination of the bone resorption-inhibitory activity basically followed the method of Raisz [J. Clin. Invest., vol. 44, pp. 103-116 (1965)].
A 1-2 days old new born ICR mouse was intraperitoneally administered with 1.5μ Ci ^45 Ca (CaCl2 solution of isotope of calcium) and parietal bone was asceptically removed the next day. The parietal bone was split into two along the central sature line and one of them was used as a control and the other was used for the experiment. The bone was preincubated in 0.5 ml of a BGJb medium (Fitton-Jackson modification, GIBCO Laboratories, U.S.A.) added with the test compound to a concentration of 5 μM or 20 μM and bovine serum albumin (1 mg/ml) at 37° C. for 2 days, and further incubated in the aforementioned medium containing 50 nM hPTH (1-34) for 3 days. After the incubation, the radioactivity of ^45 Ca in the medium and in the bone was measured and the ratio (%) of ^45 Ca released from the bone into the medium was calculated. [formula]
Using the bone obtained from the same mouse and treated in the same manner without the test compound as a control, the ratio (%) against the control was calculated according to the following equation. [formula]
The average of these values obtained from four pairs from each group was calculated.

[1] = 20 μM, Table 21, average of four pairs

SMILES	inhibition at 20 µM [%]	inhibition at 20 µM [1] [%]	IC50 (read-out: IC50 (figures in parentheses), bone resorption-inhibitory action) [µM]
Cc1nnc2n1-c1ccccc1C(c1ccc(Cl)cc1)=NC2Cc1c[nH]c2ccccc12 (stereo not shown) [compound 508]	48.1	–	–
COc1ccccc1NC(=O)OCC1N=C(c2ccccc2)c2ccccc2-n2c(C)nnc21 (stereo not shown) [compound 509]	35	–	–
Cc1cccc(NC(=O)OCC2N=C(c3ccccc3)c3ccccc3-n3c(C)nnc32)c1 (stereo not shown) [compound 510]	28.3	–	–
Cc1nnc2n1-c1ccccc1C(c1ccccc1)=NC2COC(=O)Cc1ccccc1 (stereo not shown) [compound 511]	37.7	–	–
CCCCCCCCCCCc1nnc2n1-c1ccccc1C(c1ccc(Cl)cc1)=NC2 [compound 513]	43.3	–	–
CCCCCCCCCCCc1nnc2n1-c1ccccc1C(c1ccc(Cl)cc1)NC2 (stereo not shown) [compound 515]	–	29.9	–
CCCCCCCCCCCc1nnc2n1-c1ccccc1C(c1ccc(Cl)cc1)OC2 (stereo not shown) [compound 516]	–	22.4	–
CC(C)Cc1ccc(CCc2nnc3n2-c2ccccc2C(c2ccc(Cl)cc2)=NC3)cc1 [compound 517]	47.3	–	–
Cc1ccc(S(=O)(=O)OCC2N=C(c3ccccc3)c3ccccc3-n3c(C)nnc32)cc1 (stereo not shown) [compound 518]	45.4	–	–
CCCCCCCCCCc1ccc2c(c1)C(c1ccccc1)=NC(C)c1nnc(C)n1-2 (stereo not shown) [compound 519]	21.1	–	–
CCCCCCCCCCc1ccc2c(c1)-n1c(C)nnc1C(C)N=C2c1ccccc1 (stereo not shown) [compound 520]	22.5	–	–
Cc1cccc(NC(=O)NC2N=C(c3cccs3)c3ccccc3-n3c(C)nnc32)c1 (stereo not shown) [compound 521]	29.6	–	–
Cc1nnc2n1-c1ccccc1C(c1ccc(Cl)cc1)=NC2NC(=O)Nc1ccccn1 (stereo not shown) [compound 522]	32.8	–	–
Cc1nnc2n1-c1ccccc1C(c1ccc(Cl)cc1)=NC2NC(=O)Nc1cccnc1 (stereo not shown) [compound 523]	26.7	–	–
Cc1nnc2n1-c1ccccc1C(c1ccc(Cl)cc1)=NC2NC(=O)NC(=O)c1ccccc1 (stereo not shown) [compound 525]	26.8	–	–
Cc1nnc2n1-c1ccccc1C(c1ccc(Cl)cc1)=NC2NC(=O)C(=O)Nc1ccccc1 (stereo not shown) [compound 530]	28.2	–	–
Cc1cccc(N2C(=O)NC3(N=C(c4ccc(Cl)cc4)c4ccccc4-n4c(C)nnc43)C2=O)c1 (stereo not shown) [compound 531]	34.4	–	–
COc1ccccc1NC(=O)NC1N=C(c2ccccc2)c2cc(Cl)ccc2-n2c(C)nnc21 (stereo not shown) [compound 532]	28.1	–	0.93

From patent US5593988A, “Therapeutic agent for osteoporosis and diazepine compound” (Yoshitomi Pharmaceutical Industries, Ltd., priority 1991, dated 1997)
